Assay results published in patent publication US5550109A, “Inducible defensin peptide from mammalian epithelia” (priority 1994, dated 1996).
Bridges are numbered along the chain shown (N, C = ends). Where no end group is shown, it is not given here. [ ]: non-standard residue; d: D form. pGlu = O=C1CC[C@@H](C(=O)O)N1

Assays:
Test in all cases: Minimum inhibitory concentration, 96 well microtitre plate
Assay type in all cases: cell-based
Candida albicans (14053) = details: Candida albicans (ATCC 14053); 1/4 strength TSB, 1×10^5 /ml
Protocol: (§1) Antimicrobial activity was determined during the purification process. Approximately 2.5 ml fractions from the P-30 gel filtration column were assessed after drawing fractions and taking an aliquot of the fraction and spotting that fraction on a radial diffusion plate as described by Zasloff, M. (Proc. Natl. Acad. Sci USA 84: 5449-5453, 1987) against E. coli D31 or fungal pathogens such as Candida albicans, Candida tropicalis, or Staphylococcus aureus. (See also, Zasloff et al., Proc. Natl. Acad. Sci. USA 85: 910-913, 1988.) (FIGS. 1B and 1C.) Briefly, the minimal inhibitory concentrations (MIC's) were assessed using a 96 well microtitre plate (Corning Glass Works, Corning, N.Y.). Microorganisms were grown in log phase at 1/4 strength tryptics soy broth (TSB) at a density of 1×10^5 /ml. The assays used 1/4 strength TSB. For each organism, dilutions of peptide were made ranging from >500 μg/ml to 1 μg/ml using 1/4 strength TSB as a dilution buffer. Zones of bacterial growth or lack of growth were assessed under the microscope. MIC's were calculated based the lowest concentration of peptide that inhibited growth.

[1] = tested on: Pseudomonas aeruginosa (27853); details: Pseudomonas aeruginosa (ATCC 27853); 1/4 strength TSB, 1×10^5 /ml
Protocol: as §1

Escherichia coli (D31) = details: 1/4 strength TSB, 1×10^5 /ml
Protocol: as §1

[2] = tested on: Staphylococcus aureus (29213); details: Staphylococcus aureus (ATCC 29213); 1/4 strength TSB, 1×10^5 /ml
Protocol: as §1

[3] = tested on: Candida tropicalis (13803); details: Candida tropicalis (ATCC 13803); 1/4 strength TSB, 1×10^5 /ml
Protocol: as §1

With Magainin II-amide the “Minimum Inhibitory Concentration” value (Candida albicans (14053)) was 50 to 100 µg/mL, the “Minimum Inhibitory Concentration” value [1] was 13 to 25 µg/mL and the “Minimum Inhibitory Concentration” value (Escherichia coli (D31)) was 13 to 25 µg/mL. For the same substance, the “Minimum Inhibitory Concentration” value [2] was 50 to 100 µg/mL and the “Minimum Inhibitory Concentration” value [3] was 13 to 25 µg/mL.

In the case of “[pGlu]GVRNSQSCRRNKGICVPIRCPGSMRQIGTCLGAQVKCCRRK (disulfide 9-38, 16-31, 21-39) [LAP, lingual antimicrobial peptide]”, the “Minimum Inhibitory Concentration” value (Candida albicans (14053)) is reported as 32 to 63 µg/mL, the “Minimum Inhibitory Concentration” value [1] is reported as 63 to 125 µg/mL and the “Minimum Inhibitory Concentration” value (Escherichia coli (D31)) is reported as 16 to 32 µg/mL. The “Minimum Inhibitory Concentration” value [2] was 63 to 125 µg/mL and the “Minimum Inhibitory Concentration” value [3] was 16 to 32 µg/mL.
